Test results published in the NIST ThermoML archive (doi:10.1021/je049824c).

Key:
[1] = Liquid, Closed cell (Static) method
[2] = excess molar enthalpy (molar enthalpy of mixing); xn = mol fraction of the nth substance listed; conditions: 14100 kPa, Liquid, Flow calorimetry

COC(=O)C(C)O (stereo not drawn) [methyl 2-hydroxypropanoate]
[1]
Conditions | vapor or sublimation pressure [kPa]
283.15 K | 0.17
293.15 K | 0.43
303.15 K | 0.87

COC(=O)C(C)O (stereo not drawn) [methyl 2-hydroxypropanoate] + O
excess molar enthalpy [kcal/mol], [2]
Conditions | 303.15 K | 333.15 K
x2 = 0.0632 | 0.004 | -0.00394
x2 = 0.1202 | 0.00357 | -0.00928
x2 = 0.219 | -0.000437 | -0.0211
x2 = 0.3016 | -0.00462 | -0.0288
x2 = 0.3718 | -0.00866 | -0.0345
x2 = 0.4321 | -0.0134 | -0.0398
x2 = 0.5083 | -0.0221 | -0.0479
x2 = 0.5711 | -0.0295 | -0.0552
x2 = 0.6397 | -0.0384 | -0.0643
x2 = 0.7195 | -0.0493 | -0.0756
x2 = 0.7803 | -0.0572 | -0.0839
x2 = 0.8419 | -0.0642 | -0.0901
x2 = 0.8988 | -0.0647 | -0.0891
x2 = 0.9411 | -0.0552 | -0.0767
x2 = 0.9796 | -0.0288 | -0.0394
